Experimental data published in patent US20260000629A1, “FERROPTOSIS INHIBITOR” (TOHOKU UNIVERSITY, priority 2020, published 2026).

Columns and labels:
H9C2 cell line = assay: Ferroptosis induction treatment, cell viability by WST-8 assay, H9C2 cell line; format: cell-based, rat; conditions: for decrease in the cell viability level caused by ferroptosis inducer: with 100 μM BSO, 2 μM elastin, 50 nM RSL3 or 0.5 μM FIN56, FIG. 1; for cell viability level compared with ferroptosis inducer alone: with 50 nM RSL3, 2 μM elastin, 0.3 μM ML210, 0.3 μM ML162, 0.5 μM FIN56, 100 μM BSO or 5 μM FINO2, FIG. 2
From the text: Three different cell lines (the H9C2 cell line, which is a rat cardiac myoblast cell line, the NR[…] cell line, which is a rat kidney fibroblast, and the C2C12 cell line, which is a mouse myoblast cell line) were obtained from the American Type Culture Collection (ATCC); the Panc-1 cell line, which is a human pancreatic cancer cell line, was obtained the Cell Resource Center for Biomedical Research, Institute of Development, Aging and Cancer, Tohoku University/Cell Bank; and the HT22 cell line, which is a mouse hippocampus nerve cell line, was purchased from Merck Millipore Co. All the cell lines were subcultured in a Dulbecco's Modified Eagle Medium (DMEM) culture solution containing 100-fold diluted 1% penicillin-streptomycin (26253-84; manufactured by Nacalai Tesque, Inc.) (hereinafter simply referred to as “DMEM culture solution”) to which 10% fetal bovine serum (FBS) and 4.5 g glucose/L were added (hereinafter referred to as “DMEM [high glucose] culture solution”) under conditions of 5% CO2/20% O2 and 37° C. 4000 cells of five different cell lines (the H9C2 cell line, the Panc-1 cell line, the NR[…] cell line, the C2C12 cell line, and the HT22 cell line) were seeded on a 96-well plate and cultured overnight in a DMEM culture solution containing 1.0 g glucose/L (low glucose) and 1% FBS (hereinafter referred to as “DMEM [low glucose low serum] culture solution”). After the procedure of the above-mentioned, ferroptosis was induced in cells from the above-mentioned five different cell lines in the presence of each of […] of the present invention (vitamin K1, vitamin K2 [menaquinone-4], vitamin K3, or vitamin K3 hydroquinone) (see Table 1) or a known ferroptosis inhibitor (ferrostatin 1). Specifically, cells from the H9C2 cell line were cultured in the presence of each of six different test substances (10 μM vitamin K1 [manufactured by FUJIFILM Wako Pure Chemical Corporation], 10 μM menaquinone-4 [manufactured by Sigma-Aldrich], 3 μM or 1 μM menadione [manufactured by Sigma-Aldrich], 1 μM vitamin K3 hydroquinone [manufactured by Toronto Research Chemicals], or 0.3 μM ferrostatin 1 [manufactured by Cayman]) at various concentrations and each of eight different ferroptosis inducers (100 μM BSO [manufactured by Sigma-Aldrich], 1.5 μM or 2 μM elastin [manufactured by Cayman], 50 nM RSL3 [manufactured by Selleck Chemicals], 0.3 μM ML210 [manufactured by Cayman], 0.3 μM ML162 [manufactured by Cayman], 0.5 μM FIN56 [manufactured by Cayman], 5 μM FINO2 [manufactured by Cayman], or 4 mM glutamic acid [manufactured by Sigma-Aldrich]) for 60 hours for BSO treatment, for 48 hours for elastin treatment, RSL3 treatment, and FIN56 treatment, and for 24 hours for ML210 treatment, ML162 treatment, FINO2 treatment, and glutamic acid treatment. Cell viability levels were measured by WST-8 assay using Cell Count Reagent SF. The cell viability level was calculated as a relative value of the cell survival level when the cell viability level when cultured in the absence of a test substance and a ferroptosis inducer was set to 1.

Panc-1 cell line = assay: Ferroptosis induction treatment, cell viability by WST-8 assay, Panc-1 cell line; format: cell-based, human; conditions: with 5 μM elastin, FIG. 3A
From the text: (§1) Three different cell lines (the H9C2 cell line, which is a rat cardiac myoblast cell line, the NR[…] cell line, which is a rat kidney fibroblast, and the C2C12 cell line, which is a mouse myoblast cell line) were obtained from the American Type Culture Collection (ATCC); the Panc-1 cell line, which is a human pancreatic cancer cell line, was obtained the Cell Resource Center for Biomedical Research, Institute of Development, Aging and Cancer, Tohoku University/Cell Bank; and the HT22 cell line, which is a mouse hippocampus nerve cell line, was purchased from Merck Millipore Co. All the cell lines were subcultured in a Dulbecco's Modified Eagle Medium (DMEM) culture solution containing 100-fold diluted 1% penicillin-streptomycin (26253-84; manufactured by Nacalai Tesque, Inc.) (hereinafter simply referred to as “DMEM culture solution”) to which 10% fetal bovine serum (FBS) and 4.5 g glucose/L were added (hereinafter referred to as “DMEM [high glucose] culture solution”) under conditions of 5% CO2/20% O2 and 37° C. 4000 cells of five different cell lines (the H9C2 cell line, the Panc-1 cell line, the NR[…] cell line, the C2C12 cell line, and the HT22 cell line) were seeded on a 96-well plate and cultured overnight in a DMEM culture solution containing 1.0 g glucose/L (low glucose) and 1% FBS (hereinafter referred to as “DMEM [low glucose low serum] culture solution”). After the procedure of the above-mentioned, ferroptosis was induced in cells from the above-mentioned five different cell lines in the presence of each of five different vitamin K group compounds of the present invention (vitamin K1, vitamin K2 [menaquinone-4], vitamin K3, or vitamin K3 hydroquinone) (see Table 1) or a known ferroptosis inhibitor (ferrostatin 1). […] Cell viability levels were measured by WST-8 assay using Cell Count Reagent SF. The cell viability level was calculated as a relative value of the cell survival level when the cell viability level when cultured in the absence of a test substance and a ferroptosis inducer was set to 1.

NRK49F cell line = assay: Ferroptosis induction treatment, cell viability by WST-8 assay, NRK49F cell line; format: cell-based, rat; conditions: with 500 μM BSO, FIG. 3B
From the text: as §1

C2C12 cell line = assay: Ferroptosis induction treatment, cell viability by WST-8 assay, C2C12 cell line; format: cell-based, mouse; conditions: with 500 μM BSO, FIG. 3C
From the text: as §1

HT22 cell line = assay: Ferroptosis induction treatment (glutamic acid), cell viability by WST-8 assay, HT22 cell line; format: cell-based, mouse; conditions: with 4 mM glutamic acid, FIG. 4
From the text: as §1

[1] = test system: lipid peroxy radicals (LOO·); assay: Scavenging ability against lipid peroxy radicals, AA/LOX system using NBD-Pen fluorescence probe; format: biochemical; conditions: 100 μM test substance; AA and LOX, PBS pH 7.4, 37° C.; vs absence of test substance; FIG. 6
Procedure: The scavenging ability against lipid peroxy radicals (LOO·) was analyzed by the AA/LOX system using an NBD-Pen fluorescence probe in accordance with the method in “Nat Chem Biol 12:608-613, 2016.” Specifically, a mixture solution of 0.1% DMSO or 100 μM each of four different test substances (vitamin K1 [manufactured by FUJIFILM Wako Pure Chemical Corporation], vitamin K2 [menaquinone-4; manufactured by Sigma-Aldrich], menadione [manufactured by Sigma-Aldrich], or vitamin K3 hydroquinone [manufactured by Toronto Research Chemicals]) and PBS (pH 7.4) containing 500 μM arachidonic acid (manufactured by Sigma-Aldrich) and 1 mM dithiothreitol (DTT) was prepared and added to a 96-well plate, then 5 μM NBD-Pen fluorescence probe and 10 μg/mL LOX solution (manufactured by Sigma-Aldrich) were added, and the fluorescence level (excitation light, 470 nm; fluorescence wavelength, 530 nm) was measured using a microplate reader (Spectra Max M2e; manufactured by Molecular Devices) at 37° C. […] In the AA/LOX system using an NBD-Pen fluorescence probe, an oxidation reaction of AA by LOX produces a lipid peroxide (LOOH), a lipid peroxy radical (LOO·) is produced from the produced LOOH by Fenton reaction using an iron ion (Fe^2+) as a catalyst, and a scavenging ability against lipid peroxy radicals is detected using the level of NBD-Pen-derived fluorescence produced by a reaction of the produced lipid peroxy radical with NBD-Pen as an indicator.

AHI model mice = assay: In vivo analysis using acute hepatic injury (AHI) model mice (LPS and D-GalN); design: species or system mouse; conditions: oral 20 mg/kg at 12 h and 2 h before LPS and D-GalN, vs AHI/solvent treatment group
Procedure: An AHI model mouse was prepared by administering lipopolysaccharide (LPS) and D-galactosamine (D-GalN). Specifically, eight to nine week-old wild-type male mice (C57BL/6N; manufactured by CLEA) were divided into three groups (the wild type group [n=4], the AHI/solvent treatment group [n=7], and the AHI/VK2 treatment group [n=8]). At 12 hours and two hours before administration of LPS and D-GalN, 0.5% methylcellulose solution (solvent) was orally administered at a dose of 20 mg/kg (body weight) to the AHI/solvent treatment group, and a methylcellulose solution containing vitamin K2 (menaquinone-4) was orally administered at a dose of 20 mg (vitamin K2)/kg (body weight) to the AHI/VK2 treatment group. For LPS and D-GalN administration, PBS containing LPS and D-GalN was injected into the peritoneal cavity at a dose of 5 μg (LPS)/kg (body weight) and 500 mg (D-GalN)/kg (body weight) to the two AHI groups (that is, the AHI/solvent treatment group and the AHI/VK2 treatment group) (refer to “Sci Rep 7:1884, 2017”). The mice were sacrificed at six hours after injection, and blood and liver tissue were collected. The plasma GPT levels were measured for the collected blood using Fuji Dri-chem Slide GPT/ALT-P III (manufactured by Fujifilm Medical). Further, the collected liver tissue was fixed in 10% neutral buffered formalin and embedded in paraffin. The paraffin-embedded liver tissue was sliced to prepare liver tissue sections and subjected to hematoxylin and eosin (HE) staining. Further, deparaffinization treatment was performed by heating the liver tissue sections in a 0.01 M citric acid buffer solution (pH 6.0) at 120° C. for five minutes to prepare deparaffinized liver tissue sections. Immunohistological staining of the deparaffinized liver tissue sections using an anti-HEL antibody (50-fold diluted; clone 5F12; manufactured by JaICA) was performed in accordance with a usual method using a streptavidin-biotin-alkaline phosphatase kit (Histofine SAB-AP [M] kit; manufactured by Nichirei Corporation) and Vector Red Substrate kit (manufactured by Vector Laboratories). Further, dead cells were detected by the TUNEL method using Apop Tag Peroxidase In Situ Apoptosis Detection Kit (manufactured by Merck Millipore).

| Compound | decrease in the cell viability level caused by ferroptosis inducer (H9C2 cell line; 1 μM test substance) | NBD-Pen fluorescence signal level (scavenging of lipid peroxy radicals) [1] | cell viability level compared with ferroptosis inducer alone (H9C2 cell line; 10 μM test substance) | decrease in the cell viability level caused by ferroptosis inducer (H9C2 cell line; 10 μM test substance) | decrease in the cell viability level caused by ferroptosis inducer (Panc-1 cell line; 10 μM test substance) | decrease in the cell viability level caused by ferroptosis inducer (NRK49F cell line; 10 μM test substance) | decrease in the cell viability level caused by ferroptosis inducer (C2C12 cell line; 10 μM test substance) | decrease in the cell viability level caused by ferroptosis inducer (HT22 cell line; 10 μM test substance) | other results |
| --- | --- | --- | --- | --- | --- | --- | --- | --- | --- |
| CC1=CC(=O)c2ccccc2C1=O [menadione, Menadione] | significantly suppressed | decreased |  |  |  |  |  |  | cell viability level compared with ferroptosis inducer alone (H9C2 cell line; 3 μM test substance): significantly increased; decrease in the cell viability level caused by ferroptosis inducer (Panc-1 cell line; 3 μM test substance): significantly suppressed; decrease in the cell viability level caused by ferroptosis inducer (NRK49F cell line; 3 μM test substance): significantly suppressed; decrease in the cell viability level caused by ferroptosis inducer (C2C12 cell line; 3 μM test substance): significantly suppressed; decrease in the cell viability level caused by ferroptosis inducer (HT22 cell line; 3 μM test substance): significantly suppressed |
| Cc1cc(O)c2ccccc2c1O [vitamin K3 hydroquinone, Menadiol] | significantly suppressed | decreased |  |  |  |  |  |  |  |
| CC1=C(C/C=C(\C)CCCC(C)CCCC(C)CCCC(C)C)C(=O)c2ccccc2C1=O (centres unmarked) [vitamin K1, Phylloquinone] |  | decreased | significantly increased | significantly suppressed | significantly suppressed | significantly suppressed | significantly suppressed | significantly suppressed |  |
| CCOC(=O)c1ccc(NC2CCCCC2)c(N)c1 [ferrostatin 1] |  |  |  |  |  |  |  |  | cell viability level compared with ferroptosis inducer alone (H9C2 cell line; 0.3 μM test substance): significantly increased; decrease in the cell viability level caused by ferroptosis inducer (H9C2 cell line; 0.3 μM test substance): significantly suppressed |
| CC(C)=CCCC(C)=CCCC(C)=CCC/C(C)=C/CC1=C(C)C(=O)c2ccccc2C1=O [vitamin K2, Menaquinone-4 (MK-4)] |  | decreased | significantly increased | significantly suppressed | significantly suppressed | significantly suppressed | significantly suppressed | significantly suppressed | HEL detection level in liver tissue (lipid peroxide marker) (AHI model mice; FIG. 5A): substantially decreased; severe hemorrhage in the liver tissue (HE staining) (AHI model mice; FIG. 5A): relieved; plasma GPT level (AHI model mice; FIG. 5B): significantly decreased; proportion of dead cells in liver tissue (TUNEL method) (AHI model mice; FIGS. 5A and 5C): significantly decreased |
